Experimental data taken from publication PMC5218480 (PLoS ONE, 2017).

Test system: MV-4-11 cells
Assay: Gene expression microarray analysis (Affymetrix PrimeView) and GSEA
Type: cell-based, human
Parameters: RFU PODN (11730768_x_at) / Fold change /veh PODN (11730768_x_at) / RFU LINC00158 (11744669_a_at) / Fold change /veh LINC00158 (11744669_a_at) / RFU DUSP10 (11751237_a_at) / Fold change /veh DUSP10 (11751237_a_at) / RFU ID3 (11757404_x_at) / Fold change /veh ID3 (11757404_x_at) / RFU PLEKHG5 (11737974_s_at) / Fold change /veh PLEKHG5 (11737974_s_at) / RFU LRRC4B (11730491_at) / Fold change /veh LRRC4B (11730491_at) / RFU GIMAP4 (11747438_a_at) / Fold change /veh GIMAP4 (11747438_a_at) / RFU KRT8 (11758183_x_at) / Fold change /veh KRT8 (11758183_x_at) / RFU CNN1 (11734310_a_at) / Fold change /veh CNN1 (11734310_a_at) / RFU VPS37D (11726825_at) / Fold change /veh VPS37D (11726825_at) / RFU C10orf10 (11716522_x_at) / Fold change /veh C10orf10 (11716522_x_at) / RFU KIR2DL2 /// KIR2DL4 /// KIR2DL5A /// KIR2DL5B /// KIR2DS1 /// KIR2DS2 /// KIR2DS3 /// KIR2DS4 /// KIR3DL3 /// KIR3DL3 /// KIR3DS1 (11738374_at) / Fold change /veh KIR2DL2 /// KIR2DL4 /// KIR2DL5A /// KIR2DL5B /// KIR2DS1 /// KIR2DS2 /// KIR2DS3 /// KIR2DS4 /// KIR3DL3 /// KIR3DL3 /// KIR3DS1 (11738374_at) / RFU C1QL1 (11718748_at) / Fold change /veh C1QL1 (11718748_at) / RFU TMPRSS4 (11747572_a_at) / Fold change /veh TMPRSS4 (11747572_a_at) / RFU HAMP (11756126_x_at) / Fold change /veh HAMP (11756126_x_at) / RFU RNFT2 (11725882_a_at) / Fold change /veh RNFT2 (11725882_a_at) / RFU NR4A2 (11747474_a_at) / Fold change /veh NR4A2 (11747474_a_at) / RFU ABCC12 (11746883_a_at) / Fold change /veh ABCC12 (11746883_a_at) / RFU TMEM136 (11760407_x_at) / Fold change /veh TMEM136 (11760407_x_at) / RFU CLDN22 /// WWC2 (11732394_at) / Fold change /veh CLDN22 /// WWC2 (11732394_at) / RFU HLA-DPB1 (11760878_x_at) / Fold change /veh HLA-DPB1 (11760878_x_at) / RFU SPINT1 (11716480_a_at) / Fold change /veh SPINT1 (11716480_a_at) / RFU GAP43 (11754022_s_at) / Fold change /veh GAP43 (11754022_s_at) / RFU A4GNT (11735810_at) / Fold change /veh A4GNT (11735810_at) / RFU PRB3 (11715151_x_at) / Fold change /veh PRB3 (11715151_x_at) / RFU TUBB4B (11761932_at) / Fold change /veh TUBB4B (11761932_at) / RFU CAPN14 (11732068_a_at) / Fold change /veh CAPN14 (11732068_a_at) / RFU TMCC2 (11721928_a_at) / Fold change /veh TMCC2 (11721928_a_at) / RFU IRGQ (11745062_a_at) / Fold change /veh IRGQ (11745062_a_at) / RFU FAM174B (11720279_a_at) / Fold change /veh FAM174B (11720279_a_at) / RFU TMPRSS4 (11748680_a_at) / Fold change /veh TMPRSS4 (11748680_a_at) / RFU FAM212B (11763350_a_at) / Fold change /veh FAM212B (11763350_a_at) / RFU PLEKHG5 (11743358_a_at) / Fold change /veh PLEKHG5 (11743358_a_at) / RFU ZSCAN30 (11745921_a_at) / Fold change /veh ZSCAN30 (11745921_a_at) / RFU CMKLR1 (11741424_a_at) / Fold change /veh CMKLR1 (11741424_a_at) / RFU LOC101060620 /// MAPK8IP1 (11723275_at) / Fold change /veh LOC101060620 /// MAPK8IP1 (11723275_at) / RFU SPTSSB (11747773_x_at) / Fold change /veh SPTSSB (11747773_x_at) / RFU PRSS12 (11739890_at) / Fold change /veh PRSS12 (11739890_at) / RFU BIN1 (11741810_x_at) / Fold change /veh BIN1 (11741810_x_at) / RFU WNT11 (11732464_a_at) / Fold change /veh WNT11 (11732464_a_at) / RFU C10orf10 (11716521_a_at) / Fold change /veh C10orf10 (11716521_a_at) / RFU C5orf56 (11738089_at) / Fold change /veh C5orf56 (11738089_at) / RFU CYB561 (11721691_x_at) / Fold change /veh CYB561 (11721691_x_at) / RFU ANKRD19P (11752326_a_at) / Fold change /veh ANKRD19P (11752326_a_at) / RFU OR2T12 /// OR2T33 /// OR2T8 (11738714_s_at) / Fold change /veh OR2T12 /// OR2T33 /// OR2T8 (11738714_s_at) / RFU VCAN (11748164_a_at) / Fold change /veh VCAN (11748164_a_at) / RFU JSRP1 (11732532_at) / Fold change /veh JSRP1 (11732532_at) / RFU KRTAP10-11 (11738290_x_at) / Fold change /veh KRTAP10-11 (11738290_x_at) / RFU MYO3A (11730013_a_at) / Fold change /veh MYO3A (11730013_a_at) / RFU EBF3 (11725865_a_at) / Fold change /veh EBF3 (11725865_a_at) / RFU CAMK2N1 (11719241_x_at) / Fold change /veh CAMK2N1 (11719241_x_at) / RFU C5orf56 (11738088_a_at) / Fold change /veh C5orf56 (11738088_a_at) / RFU OLFML3 (11715873_a_at) / Fold change /veh OLFML3 (11715873_a_at) / RFU LOC100653217 /// NTM (11731650_a_at) / Fold change /veh LOC100653217 /// NTM (11731650_a_at) / RFU MAPK11 (11762145_a_at) / Fold change /veh MAPK11 (11762145_a_at) / RFU FIZ1 (11724087_x_at) / Fold change /veh FIZ1 (11724087_x_at) / RFU OASL (11726364_x_at) / Fold change /veh OASL (11726364_x_at) / RFU SOX15 (11748057_x_at) / Fold change /veh SOX15 (11748057_x_at) / RFU CD79A (11719716_a_at) / Fold change /veh CD79A (11719716_a_at) / RFU HIST1H1D (11736915_at) / Fold change /veh HIST1H1D (11736915_at) / RFU CASKIN2 (11723855_a_at) / Fold change /veh CASKIN2 (11723855_a_at) / RFU LOC730098 (11760151_x_at) / Fold change /veh LOC730098 (11760151_x_at) / RFU OR4N2 (11742367_at) / Fold change /veh OR4N2 (11742367_at) / RFU PRRT2 (11749266_a_at) / Fold change /veh PRRT2 (11749266_a_at) / RFU SNX32 (11753110_a_at) / Fold change /veh SNX32 (11753110_a_at) / RFU CDHR5 (11726645_a_at) / Fold change /veh CDHR5 (11726645_a_at) / RFU RCAN1 (11760418_a_at) / Fold change /veh RCAN1 (11760418_a_at) / RFU FAM167A (11723789_a_at) / Fold change /veh FAM167A (11723789_a_at) / RFU FAM26E (11764081_at) / Fold change /veh FAM26E (11764081_at) / RFU ISYNA1 (11749810_s_at) / Fold change /veh ISYNA1 (11749810_s_at) / RFU ACY1 (11761880_at) / Fold change /veh ACY1 (11761880_at) / RFU 11764098_at / Fold change /veh 11764098_at / RFU SAMD14 (11745864_x_at) / Fold change /veh SAMD14 (11745864_x_at) / RFU NPB (11741838_a_at) / Fold change /veh NPB (11741838_a_at) / RFU TMPRSS6 (11731388_a_at) / Fold change /veh TMPRSS6 (11731388_a_at) / RFU KRTAP10-2 (11738614_at) / Fold change /veh KRTAP10-2 (11738614_at) / RFU ARHGAP8 /// PRR5-ARHGAP8 (11727945_x_at) / Fold change /veh ARHGAP8 /// PRR5-ARHGAP8 (11727945_x_at) / RFU KRTAP5-7 /// NADSYN1 (11734609_at) / Fold change /veh KRTAP5-7 /// NADSYN1 (11734609_at) / RFU RASL12 (11751679_a_at) / Fold change /veh RASL12 (11751679_a_at) / RFU CDKN2B (11736163_a_at) / Fold change /veh CDKN2B (11736163_a_at) / RFU PRF1 (11729649_at) / Fold change /veh PRF1 (11729649_at) / RFU, ZNF638 /// ZNF638-IT1 / Fold change vs veh, ZNF638 /// ZNF638-IT1 / RFU, PANK3 / Fold change vs veh, PANK3 / RFU, SH3YL1 / Fold change vs veh, SH3YL1 / RFU, ZEB2 / Fold change vs veh, ZEB2 / RFU, NRIP1 / Fold change vs veh, NRIP1 / RFU, PTTG1IP / Fold change vs veh, PTTG1IP / RFU, CAPN2 / Fold change vs veh, CAPN2 / RFU, MED14 / Fold change vs veh, MED14 / RFU, SNORA58 / Fold change vs veh, SNORA58 / RFU, C1orf63 / Fold change vs veh, C1orf63 / RFU, LRRFIP1 / Fold change vs veh, LRRFIP1 / RFU, NDUFAF7 / Fold change vs veh, NDUFAF7 / RFU, SLC12A2 / Fold change vs veh, SLC12A2 / RFU, IBTK / Fold change vs veh, IBTK / RFU, ESF1 / Fold change vs veh, ESF1 / Fold change vs veh, TMEM50B / RFU, TAOK1 / Fold change vs veh, TAOK1 / RFU, ACBD3 / Fold change vs veh, ACBD3 / RFU, TMA16 / Fold change vs veh, TMA16 / RFU, RWDD3 / Fold change vs veh, RWDD3 / RFU, BCAT1 / Fold change vs veh, BCAT1 / RFU, EDEM3 / Fold change vs veh, EDEM3 / RFU, TMEM33 / Fold change vs veh, TMEM33 / RFU, WDR75 / Fold change vs veh, WDR75 / RFU, AHCTF1 / Fold change vs veh, AHCTF1 / RFU, TFRC / Fold change vs veh, TFRC / RFU, ZDHHC17 / Fold change vs veh, ZDHHC17 / RFU, NOM1 / Fold change vs veh, NOM1 / RFU, ARL8B / Fold change vs veh, ARL8B / RFU, ZBTB11 / Fold change vs veh, ZBTB11 / RFU, TAMM41 / Fold change vs veh, TAMM41 / RFU, KIAA1704 /// LOC100996395 / Fold change vs veh, KIAA1704 /// LOC100996395 / RFU, ING1 / Fold change vs veh, ING1 / RFU, TRMT61B / Fold change vs veh, TRMT61B / RFU, FUBP3 / Fold change vs veh, FUBP3 / RFU, TP53 / Fold change vs veh, TP53 / RFU, TNKS2 / Fold change vs veh, TNKS2 / RFU, ZFP14 / Fold change vs veh, ZFP14 / RFU, ACTR2 / Fold change vs veh, ACTR2 / RFU, PPP3R1 / Fold change vs veh, PPP3R1 / RFU, PIK3R1 / Fold change vs veh, PIK3R1 / RFU, HNRNPA1 / Fold change vs veh, HNRNPA1 / RFU, RNF170 / Fold change vs veh, RNF170 / RFU, ZNF28 / Fold change vs veh, ZNF28 / RFU, RNGTT / Fold change vs veh, RNGTT / RFU, OGT / Fold change vs veh, OGT / RFU, BRD1 / Fold change vs veh, BRD1 / RFU, MARS / Fold change vs veh, MARS / RFU, ZNF655 / Fold change vs veh, ZNF655 / RFU, FAHD1 / Fold change vs veh, FAHD1 / RFU, BDP1 / Fold change vs veh, BDP1 / RFU, LRRCC1 / Fold change vs veh, LRRCC1 / RFU, ARID1A / Fold change vs veh, ARID1A / RFU, ZNF146 / Fold change vs veh, ZNF146 / RFU, ZNF330 / Fold change vs veh, ZNF330 / RFU, GPN3 / Fold change vs veh, GPN3 / RFU, C9orf123 / Fold change vs veh, C9orf123 / RFU, N4BP2L2 / Fold change vs veh, N4BP2L2 / RFU, ARFIP1 / Fold change vs veh, ARFIP1 / RFU, FAM179B / Fold change vs veh, FAM179B / RFU, BCL10 / Fold change vs veh, BCL10 / RFU, UHRF1BP1L / Fold change vs veh, UHRF1BP1L / RFU, BET1 / Fold change vs veh, BET1 / RFU, CNOT2 / Fold change vs veh, CNOT2 / RFU, ZNF268 / Fold change vs veh, ZNF268 / Fold change vs veh, ZNF507 / RFU, DGCR2 / Fold change vs veh, DGCR2 / RFU, WDSUB1 / Fold change vs veh, WDSUB1 / Fold change vs veh, HSP90B1 /// MIR3652 / RFU, ADSS / Fold change vs veh, ADSS / RFU, GK / Fold change vs veh, GK / RFU, ZNF148 / Fold change vs veh, ZNF148 / RFU, TAF9 / Fold change vs veh, TAF9 / RFU, SLC1A5 / Fold change vs veh, SLC1A5 / RFU, SLMO2 / Fold change vs veh, SLMO2 / RFU, ABCC4 / Fold change vs veh, ABCC4 / RFU, LOC101060439 /// RAP1B / Fold change vs veh, LOC101060439 /// RAP1B / RFU, RFX7 / Fold change vs veh, RFX7 / RFU, GTPBP10 / Fold change vs veh, GTPBP10 / RFU, CNEP1R1 / Fold change vs veh, CNEP1R1 / RFU, BIVM-ERCC5 /// ERCC5 / Fold change vs veh, BIVM-ERCC5 /// ERCC5 / RFU, ILF3 / Fold change vs veh, ILF3 / RFU 11762660_at / Fold change /veh 11762660_at / RFU VCAN (11757783_s_at) / Fold change /veh VCAN (11757783_s_at) / RFU DDX43 (11728927_at) / Fold change /veh DDX43 (11728927_at) / RFU KRT8 (11758188_x_at) / Fold change /veh KRT8 (11758188_x_at) / RFU NKD1 (11759106_at) / Fold change /veh NKD1 (11759106_at) / RFU SRD5A1 (11742802_a_at) / Fold change /veh SRD5A1 (11742802_a_at) / RFU TPSAB1 /// TPSB2 (11721975_s_at) / Fold change /veh TPSAB1 /// TPSB2 (11721975_s_at) / RFU GSTM3 (11746129_a_at) / Fold change /veh GSTM3 (11746129_a_at) / RFU IL23R (11737362_x_at) / Fold change /veh IL23R (11737362_x_at) / RFU TMEM51 (11727254_a_at) / Fold change /veh TMEM51 (11727254_a_at) / RFU PIWIL2 (11732686_x_at) / Fold change /veh PIWIL2 (11732686_x_at) / RFU ORM1 (11744905_x_at) / Fold change /veh ORM1 (11744905_x_at) / RFU CCDC152 (11743942_at) / Fold change /veh CCDC152 (11743942_at) / RFU ECM1 (11717891_a_at) / Fold change /veh ECM1 (11717891_a_at) / RFU IL23R (11748794_a_at) / Fold change /veh IL23R (11748794_a_at) / RFU TNFAIP8L3 (11732012_x_at) / Fold change /veh TNFAIP8L3 (11732012_x_at) / RFU MBOAT4 (11741988_at) / Fold change /veh MBOAT4 (11741988_at) / RFU 11764193_at / Fold change /veh 11764193_at / RFU TMEM53 (11763286_at) / Fold change /veh TMEM53 (11763286_at) / RFU MAGEB2 (11727129_at) / Fold change /veh MAGEB2 (11727129_at) / RFU TMEM200A (11744735_a_at) / Fold change /veh TMEM200A (11744735_a_at) / RFU CCDC152 (11751479_a_at) / Fold change /veh CCDC152 (11751479_a_at) / RFU FAM211A (11726209_a_at) / Fold change /veh FAM211A (11726209_a_at) / RFU RGS16 (11746705_a_at) / Fold change /veh RGS16 (11746705_a_at) / RFU VCAN (11755009_s_at) / Fold change /veh VCAN (11755009_s_at) / RFU RHOB (11743442_s_at) / Fold change /veh RHOB (11743442_s_at) / RFU RGS16 (11720943_a_at) / Fold change /veh RGS16 (11720943_a_at) / RFU RGS16 (11720944_at) / Fold change /veh RGS16 (11720944_at) / RFU, VPS4B / Fold change vs veh, VPS4B / RFU, CREB1 / Fold change vs veh, CREB1 / RFU, DNAJC13 / Fold change vs veh, DNAJC13 / RFU, GNAQ / Fold change vs veh, GNAQ / RFU, CDK5R1 / Fold change vs veh, CDK5R1 / RFU, ZRANB3 / Fold change vs veh, ZRANB3 / RFU, CUL4A / Fold change vs veh, CUL4A / RFU, CCNY / Fold change vs veh, CCNY / RFU, UFL1 / Fold change vs veh, UFL1 / RFU, COG3 / Fold change vs veh, COG3 / RFU, DIAPH2 / Fold change vs veh, DIAPH2 / RFU, SKA2 / Fold change vs veh, SKA2 / RFU, AFF3 / Fold change vs veh, AFF3 / RFU, LMF1 / Fold change vs veh, LMF1 / RFU, IPO11 / Fold change vs veh, IPO11 / RFU, DFFB / Fold change vs veh, DFFB / RFU, FOXP1 / Fold change vs veh, FOXP1 / RFU, CARD8 / Fold change vs veh, CARD8 / RFU, STRN3 / Fold change vs veh, STRN3 / RFU, ADK / Fold change vs veh, ADK / RFU, RASSF2 / Fold change vs veh, RASSF2 / RFU, WIPF1 / Fold change vs veh, WIPF1 / RFU, LARP1B / Fold change vs veh, LARP1B / RFU, RASA1 / Fold change vs veh, RASA1 / RFU, RB1 / Fold change vs veh, RB1 / RFU, PPFIA1 / Fold change vs veh, PPFIA1 / RFU, MAT2A / Fold change vs veh, MAT2A / RFU, CCT5 / Fold change vs veh, CCT5 / RFU, WDR92 / Fold change vs veh, WDR92 / RFU, CUX1 / Fold change vs veh, CUX1 / RFU, TTC7A / Fold change vs veh, TTC7A / RFU, TMEM135 / Fold change vs veh, TMEM135 / RFU, DEPTOR / Fold change vs veh, DEPTOR / RFU, CPM / Fold change vs veh, CPM / RFU, DNAJB6 / Fold change vs veh, DNAJB6 / RFU, CACNA2D3 / Fold change vs veh, CACNA2D3 / RFU, DTX4 / Fold change vs veh, DTX4 / RFU, TFCP2 / Fold change vs veh, TFCP2 / RFU, GMCL1 /// GMCL1P1 / Fold change vs veh, GMCL1 /// GMCL1P1 / RFU, AEBP2 / Fold change vs veh, AEBP2 / RFU, SNHG1 /// SNORD22 /// SNORD25 /// SNORD26 /// SNORD27 /// SNORD28 /// SNORD29 /// SNORD31 / Fold change vs veh, SNHG1 /// SNORD22 /// SNORD25 /// SNORD26 /// SNORD27 /// SNORD28 /// SNORD29 /// SNORD31 / Fold change (Aza/veh), C12orf56 (ProbeSet 11735607_a_at) / Fold change (ACY-1035/veh), C12orf56 (ProbeSet 11735607_a_at) / Fold change (Aza/veh), FGFR1OP (ProbeSet 11751329_s_at) / Fold change (ACY-1035/veh), FGFR1OP (ProbeSet 11751329_s_at) / Fold change (Aza/veh), VPS36 (ProbeSet 11739960_a_at) / Fold change (ACY-1035/veh), VPS36 (ProbeSet 11739960_a_at) / RFU SYPL1 (11715823_x_at) / Fold change /veh SYPL1 (11715823_x_at) / RFU IGFBP7 (11715501_s_at) / Fold change /veh IGFBP7 (11715501_s_at) / RFU REEP3 (11722064_at) / Fold change /veh REEP3 (11722064_at) / RFU IGLL1 (11728026_x_at) / Fold change /veh IGLL1 (11728026_x_at): dose or concentration left out as unconfirmed
Conditions: ProbeSet 11719185_x_at; LIST B

## Nc1ccc(-c2cccs2)cc1NC(=O)c1ccc2c(c1)cc(C1CC1)n2CCN1CCOCC1 [ACY-1035]
  RFU, N4BP2L2: 104.68 RFU
